Reference: patent publication US11479551B2, “MTA-cooperative PRMT5 inhibitors” (Mirati Therapeutics, Inc., priority 2019, dated 2022)
Like-named read-outs stand apart in the source and are kept apart here.

Columns and labels:
[1] = system: PRMT5-dependent Symmetric Di-methyl Arginine signal in HCT116 homozygous MTAP knockout cells; assay: SYM11 In-Cell Western, HCT116 MTAP knockout; format: cell-based
Method: (§1) 1. HCT116 MTAP Knockout Model
(§2) HCT116 cells were genetically engineered to knock out the function of both MTAP alleles using a CRISPR/Cas9 system and an sgRNA targeting the MTAP gene. Following Cas9/MTAP sgRNA transduction, clones were screened to confirm that each allele of the MTAP gene had been inactivated (i.e., homozygous MTAP knock out) creating an MTAP-deficient cell.
(§3) Control samples were analyzed in parallel.
Briefly, on Day 0, 2,000 HCT116 parental or HCT116 homozygous MTAP knockout cells were seeded in 96 well plates in McCoy's 5A supplemented with 10% fetal bovine serum and pen/strep and the cells were incubated overnight at 37° C. plus 5% CO2. The following day, cells were treated with DMSO vehicle control or a dose response of PRMT5 inhibitors, and incubated at 37° C. plus 5% CO^2 for four days.
After 4 days of treatment, the cells were fixed by adding 50 μl of 4% paraformaldehyde solution to each well and the cells were incubated for 20 min at room temperature. The paraformaldehyde solution was removed, 150 μl of ice-cold methanol was added and the plate was placed −20° C. for 10 minutes. The methanol was removed, 150 μl of Odyssey Blocking buffer+0.05% Tween20 was added and the plate was incubated at room temperature with shaking for one hour.
The primary SYM11 antibody solution was removed by aspiration and the wells were washed three consecutive times with phosphate buffered saline containing 0.1% Tween-20 (PBST).
The secondary antibody solution was removed by aspiration and the wells were washed three consecutive times with PB ST.
The SYM11 signal and the DRAQ5 signal were quantified using a Li-Cor Odyssey machine reading at […], respectively. The SYM11/DRAQ5 ratio was used to calculate the inhibition of Symmetric Dimethyl Arginine as percent of DMSO control.

[2] = system: HCT116 homozygous MTAP knockout cells; assay: Proliferation assay (CellTiter-Glo, 10 days of treatment), HCT116 MTAP knockout; format: cell-based; settings: read-out: Proliferation HCT116MTAP_KO IC50
Method: as §1, §2, §3
Briefly, on Day 0, 250 HCT116 parental or HCT116 homozygous MTAP knockout cell were seeded in 96 well plates in McCoy's 5A supplemented with 10% fetal bovine serum and pen/strep and the cells were incubated overnight at 37° C. plus 5% CO2.
The following day, cells were treated with DMSO vehicle control or a dose response of PRMT5 inhibitors and incubated at 37 C plus 5% CO2 for five days. On Day 6, the cells were trypsinized and split 1:10 into new 96-well plates with fresh medium containing the same concentration of PRMT5 inhibitor and incubated for an additional 5 days at 37° C. plus 5% CO^2.
On Day 11, the viability of the cells was measured using a CTG assay kit (CellTiter-Glo; Promega cat.no G7573) in accordance with the manufacturer's instructions. The IC50 values for each compound after 10 days of treatment were calculated using GraphPad PRISM software.

[3] = HCT116 homozygous MTAP knockout cells, 4 days of treatment, SYM11/DRAQ5 ratio; read-out: In-cell-Western (SYM11) HCT116 MTAP_KO IC50
[4] = Homo sapiens, HCT-116, 96 h, HCT116 homozygous MTAP knockout cells, 4 days of treatment, SYM11/DRAQ5 ratio; read-out: In-cell-Western (SYM11) HCT116 MTAP_KO IC50
[5] = read-out: In-cell-Western (SYM11) HCT116 MTAP_KO IC50; HCT116 homozygous MTAP knockout cells, 4 days of treatment, SYM11/DRAQ5 ratio

| SMILES | IC50 [1, 3] | IC50 [2] | IC50 [1, 4] | IC50 ([2]; Homo sapiens, HCT-116, 240 h) | IC50 [1, 5] |
| --- | --- | --- | --- | --- | --- |
| Cn1ncc(-c2ccc3c(=O)[nH]nc(CN)c3c2)c1-c1c(F)c(Cl)cc(OC2CC2)c1C#N (single isomer, unassigned) [Example 16-7, 2-(4-(4-(aminomethyl)-1-oxo-1,2-dihydrophthalazin-6-yl)-1-methyl-1H-pyrazol-5-yl)-4-chloro-6-cyclopropoxy-3-fluorobenzonitrile] |  | 4000 nM |  |  | 1000 nM |
| Cn1ncc(-c2ccc3c(=O)[nH]nc(CN)c3c2)c1-c1c(F)c(Cl)cc(OC2CC2)c1C#N (single isomer, unassigned) [Example 16-8, 2-(4-(4-(aminomethyl)-1-oxo-1,2-dihydrophthalazin-6-yl)-1-methyl-1H-pyrazol-5-yl)-4-chloro-6-cyclopropoxy-3-fluorobenzonitrile] |  | 24 nM |  |  | 0.8 nM |
| Cn1ncc(-c2ccc3c(=O)[nH]nc(CN)c3c2)c1-c1ccc(Cl)c(OC2CC2)c1C#N [Example 4-208, 6-(4-(4-(aminomethyl)-1-oxo-1,2-dihydrophthalazin-6-yl)-1-methyl-1H-pyrazol-5-yl)-3-chloro-2-cyclopropoxybenzonitrile] |  |  | 11 nM | 124 nM |  |
| Cn1ncc(-c2ccc3c(=O)[nH]nc(CN)c3c2)c1-c1cnn(Cc2ccccc2)c1C#N [Example 4-211, 4-(4-(aminomethyl)-1-oxo-1,2-dihydrophthalazin-6-yl)-1′-benzyl-2-methyl-1′H,2H-[3,4′-bipyrazole]-5′-carbonitrile] |  |  | 197 nM | 2150 nM |  |
| Cn1ncc(-c2ccc3c(=O)[nH]nc(CN)c3c2)c1-c1cn(Cc2ccccc2)nc1C#N [Example 4-212, 4-(4-(aminomethyl)-1-oxo-1,2-dihydrophthalazin-6-yl)-1′-benzyl-2-methyl-1′H,2H-[3,4′-bipyrazole]-3′-carbonitrile] |  |  | > 10000 nM | > 10000 nM |  |
| Cn1ncc(-c2ccc3c(=O)[nH]nc(CN)c3c2)c1-c1cn(-c2ccccc2)nc1Cl [Example 4-213, 4-(aminomethyl)-6-(3′-chloro-2-methyl-1′-phenyl-1′H,2H-[3,4′-bipyrazol]-4-yl)phthalazin-1(2H)-one] |  |  | 88 nM | 1680 nM |  |
| Cn1ncc(-c2ccc3c(=O)[nH]nc(CN)c3c2)c1-c1cn(-c2ccccc2)nc1C#N [Example 4-214, 4-(4-(aminomethyl)-1-oxo-1,2-dihydrophthalazin-6-yl)-2-methyl-11-phenyl-1′H,2H-[3,4′-bipyrazole]-3′-carbonitrile] |  |  | > 10000 nM | 4400 nM |  |
| Cn1ncc(-c2ccc3c(=O)[nH]nc(CN)c3c2)c1-c1ccc2cc(F)ccc2c1C#N [Example 4-216, 2-(4-(4-(aminomethyl)-1-oxo-1,2-dihydrophthalazin-6-yl)-1-methyl-1H-pyrazol-5-yl)-6-fluoro-1-naphthonitrile] |  |  | 83 nM | 134 nM |  |

Now from value to compound, other results behind:

| IC50 [1, 3] | IC50 [2] | IC50 [1, 4] | IC50 ([2]; Homo sapiens, HCT-116, 240 h) | SMILES | IC50 [1, 5] |
| --- | --- | --- | --- | --- | --- |
| > 1000 nM | 4180 nM |  |  | CC(N)c1n[nH]c(=O)c2ccc(-c3cnn(C)c3-c3ccc4ccccc4c3C#N)cc12 (single isomer, unassigned) [Example 9-4, 2-[4-[4-(1-aminoethyl)-1-oxo-2H-phthalazin-6-yl]-2-methyl-pyrazol-3-yl]naphthalene-1-carbonitrile] |  |
|  | 84 nM | 15 nM |  | CCOc1cc(-c2cnn(C)c2-c2c(F)cc3ccccc3c2C#N)cc2c(CN)n[nH]c(=O)c12 (single isomer, unassigned) [Example 16-3, 2-[4-[4-(aminomethyl)-8-ethoxy-1-oxo-2H-phthalazin-6-yl]-2-methyl-pyrazol-3-yl]-3-fluoro-naphthalene-1-carbonitrile] |  |
| 12 nM | 15 nM |  |  | CCOc1cc(-c2cnn(C)c2-c2c(F)cc3ccccc3c2C#N)cc2c(CN)n[nH]c(=O)c12 (single isomer, unassigned) [Example 16-4, 2-[4-[4-(aminomethyl)-8-ethoxy-1-oxo-2H-phthalazin-6-yl]-2-methyl-pyrazol-3-yl]-3-fluoro-naphthalene-1-carbonitrile] |  |
